Patent publication US20230248665A1, “COMPOSITION COMPRISING DIMETHYLCHALCONE DERIVATIVE FOR PREVENTION OR TREATMENT OF METABOLIC DISEASE” (SEOUL NATIONAL UNIVERSITY R & DB FOUNDATION, priority 2020, published 2023)

How the values were obtained:
Format in all cases: cell-based
[1] = tested on: vascular endothelial cells (HUVECs) and THP-1 (human monocyte) immune cells; test: Binding of THP-1 immune cells to TNFα-treated vascular endothelial cells (HUVECs); settings: 10 µM with 10 ng/mL TNFα, 24 hours, then THP-1 for 1 hour; FIG. 5
Method: In the early stages of progression of vascular diseases such as arteriosclerosis, adhesion materials are expressed in vascular endothelial cells due to various environmental factors, thereby increasing the binding of immune cells. Therefore, in order to check whether the DMC derivatives of Example 1 affect the binding between vascular endothelial cells and immune cells, vascular endothelial cells (HUVECs) were treated with 10 ng/mL TNFα and 10 µM DMC derivative and cultured for 24 hours. Then, THP-1 (human monocyte) immune cells labeled with a fluorescent protein were added to the culture solution, and the cells were additionally cultured for 1 hour. After the culture was completed, unbound immune cells were removed using a phosphate buffer solution, and then the degree of binding of immune cells to vascular endothelial cells was determined by measuring the intensity of fluorescence.

[2] = tested on: human kidney proximal tubule epithelial cell (HK-2) cell line; test: Antioxidant effect, intracellular reactive oxygen species (DCF-DA) in HK-2 kidney cells after H2O2; settings: 1 µM for 18 hours, then 500 µM H2O2 for 6 hours, FIG. 6
Method: First, the antioxidant effect was checked using kidney cells. More specifically, a human kidney proximal tubule epithelial cell (HK-2) cell line was treated with 1 µM DMC derivative and cultured for 18 hours. Then, 500 µM H2O2 was added to the culture medium and the culture medium was incubated for 6 hours. Thereafter, the amount of intracellular reactive oxygen species (iROS) was measured using dichlorohydro-fluorescein diacetate (DCF-DA).

AMPK = AMPK activity, western blotting of phosphorylated AMPK in C2C12 myotubes; settings: 10 µM, 24 hours, FIG. 2
From the text: AMP-activated protein kinase (AMPK) is a member of serine/threonine kinases, and is an enzyme known as an energy sensor which senses the intracellular energy state. Moreover, the activation of AMPK is known to show the effect of increasing glucose transport and promoting fatty acid oxidation in skeletal muscle, and to […] the synthesis of cholesterol and triglycerides, decrease lipogenesis, and increase fatty acid oxidation, and ketogenesis, and the like in the liver. Further, the activation of AMPK is known to reduce adipogenesis in adipose tissue and increase insulin secretion in pancreatic beta cells, thereby being able to be applied to the treatment of various metabolic diseases. Therefore, western blotting was performed in order to confirm the effect of the DMC derivatives of Example 1 on AMPK activity. More specifically, the C2C12 myoblasts were primarily cultured in DMEM supplemented with 10% fetal bovine serum, and then cultured in DMEM supplemented with 2% horse serum for 5 days to differentiate into myotubes. Then, the differentiated myotubes were treated with 10 µM DMC derivative and cultured for 24 hours, and then cells were collected, and disrupted using an ultrasonic disperser to obtain proteins. Next, western blotting was performed using a pAMPK antibody (Cell Signaling Technology) and an AMPK antibody (Cell Signaling Technology) to measure the amount of phosphorylated AMPK. 1 mM AICAR was used as a positive control, and 20 µg of protein was used for each sample in western blotting.

[3] = tested on: rat aortic smooth muscle cells; test: PDGF-induced migration of vascular smooth muscle cells; settings: 1 µM with 10 ng/mL PDGF; FIG. 4
Method: Proliferation and migration of vascular smooth muscle cells are known to be essential steps in the progression of vascular diseases such as restenosis and arteriosclerosis. Therefore, in order to confirm the effect of the DMC derivatives of Example 1 on the migration of rat aortic smooth muscle cells, smooth muscle cells were treated with 10 ng/mL platelet-derived growth factor (PDGF) and 1 µM DMC derivative and cultured. Then, the degree of cell migration was measured.

Compound | binding of immune cells to vascular endothelial cells (fluorescence) [1] | amount of intracellular reactive oxygen species (ROS) [2] | activity of AMPK (phosphorylated AMPK) (AMPK) | migration of vascular smooth muscle cells [3]
COc1c(C)c(OC)c(C(=O)/C=C/c2ccc(N(C)C)cc2)c(OC)c1C [Chemical Formula 23, 1-(3′,5′-dimethyl-2′,4′,6′-trimethoxyphenyl)-3-(4-(N,N-dimethylamino)phenyl)-2-propen-1-one] | similarly or more effectively suppressed the binding of immune cells than Rosi | effectively reduced ROS | increased the activity of AMPK similarly to or more effectively than the positive controls | similarly or more effectively suppressed cell migration by PDGF than AICAR and Rosi, which were used as positive controls, and DMC
COc1c(C)c(O)c(C)c(O)c1C(=O)/C=C/c1ccc(C)cc1 [Chemical Formula 3, 1-(2′,4′-dihydroxy-6′-methoxy-3′,5′-dimethylphenyl)-3-(4-tolyl)-2-propen-1-one] | similarly or more effectively suppressed the binding of immune cells than Rosi | effectively reduced ROS | increased the activity of AMPK similarly to or more effectively than the positive controls | similarly or more effectively suppressed cell migration by PDGF than AICAR and Rosi, which were used as positive controls, and DMC
COCOc1c(C)c(O)c(C(=O)/C=C/c2cc(OC)ccc2OC)c(OC)c1C [Chemical Formula 15, 1-(2′-hydroxy-4′-(methoxymethoxy)-6′-methoxy-3′,5′-dimethylphenyl)-3-(2,5-dimethoxyphenyl)-2-propen-1-one] | similarly or more effectively suppressed the binding of immune cells than Rosi | effectively reduced ROS | increased the activity of AMPK similarly to or more effectively than the positive controls | similarly or more effectively suppressed cell migration by PDGF than AICAR and Rosi, which were used as positive controls, and DMC
COCOc1c(C)c(O)c(C(=O)/C=C/c2ccc(F)cc2)c(OC)c1C [Chemical Formula 24, 1-(2′-hydroxy-4′-(methoxymethoxy)-6′-methoxy-3′,5′-dimethylphenyl)-3-(4-fluorophenyl)-2-propen-1-one] | similarly or more effectively suppressed the binding of immune cells than Rosi | effectively reduced ROS | increased the activity of AMPK similarly to or more effectively than the positive controls | similarly or more effectively suppressed cell migration by PDGF than AICAR and Rosi, which were used as positive controls, and DMC
COCOc1c(C)c(O)c(C(=O)/C=C/c2ccccc2)c(OC)c1C [Chemical Formula 25, 1-(2′-hydroxy-4′-(methoxymethoxy)-6′-methoxy-3′,5′-dimethylphenyl)-3-phenyl-2-propen-1-one] | similarly or more effectively suppressed the binding of immune cells than Rosi | effectively reduced ROS | increased the activity of AMPK similarly to or more effectively than the positive controls | similarly or more effectively suppressed cell migration by PDGF than AICAR and Rosi, which were used as positive controls, and DMC
